Measured values from ChEMBL document CHEMBL5154787 (J Med Chem, 2022).

How the values were obtained:
[1] = biological target: AP2-associated protein kinase 1 (Mus musculus, UniProt Q3UHJ0); assay: Displacement of 3H-LP-927443 from AAK1 in C57BL6 mouse brain homogenate assessed as inhibition constant incubated for 1 hr by liquid scintillation counter analysis; assay type: tissue-based
[2] = Metabolic stability in rat liver microsomes assessed as parent compound remaining at 0.5 uM incubated for 10 mins in presence of NADPH by LC-MS/MS analysis; assay type: ADME, Microsome; details: read-out: Stability
[3] = Metabolic stability in mouse liver microsomes assessed as parent compound remaining at 0.5 uM incubated for 10 mins in presence of NADPH by LC-MS/MS analysis; assay type: ADME, Microsome; details: liver microsomes, read-out: Stability
[4] = biological target: T1, AP2-associated protein kinase 1 (Homo sapiens, UniProt Q2M2I8); assay: Inhibition of full length human AAK1 expressed in HEK293F cells assessed as suppression of AP2 phosphorylation measured after 3 hrs by Western blot analysis based cellular assay; assay type: cell-based
T1 sequence (Q2M2I8 whole entry): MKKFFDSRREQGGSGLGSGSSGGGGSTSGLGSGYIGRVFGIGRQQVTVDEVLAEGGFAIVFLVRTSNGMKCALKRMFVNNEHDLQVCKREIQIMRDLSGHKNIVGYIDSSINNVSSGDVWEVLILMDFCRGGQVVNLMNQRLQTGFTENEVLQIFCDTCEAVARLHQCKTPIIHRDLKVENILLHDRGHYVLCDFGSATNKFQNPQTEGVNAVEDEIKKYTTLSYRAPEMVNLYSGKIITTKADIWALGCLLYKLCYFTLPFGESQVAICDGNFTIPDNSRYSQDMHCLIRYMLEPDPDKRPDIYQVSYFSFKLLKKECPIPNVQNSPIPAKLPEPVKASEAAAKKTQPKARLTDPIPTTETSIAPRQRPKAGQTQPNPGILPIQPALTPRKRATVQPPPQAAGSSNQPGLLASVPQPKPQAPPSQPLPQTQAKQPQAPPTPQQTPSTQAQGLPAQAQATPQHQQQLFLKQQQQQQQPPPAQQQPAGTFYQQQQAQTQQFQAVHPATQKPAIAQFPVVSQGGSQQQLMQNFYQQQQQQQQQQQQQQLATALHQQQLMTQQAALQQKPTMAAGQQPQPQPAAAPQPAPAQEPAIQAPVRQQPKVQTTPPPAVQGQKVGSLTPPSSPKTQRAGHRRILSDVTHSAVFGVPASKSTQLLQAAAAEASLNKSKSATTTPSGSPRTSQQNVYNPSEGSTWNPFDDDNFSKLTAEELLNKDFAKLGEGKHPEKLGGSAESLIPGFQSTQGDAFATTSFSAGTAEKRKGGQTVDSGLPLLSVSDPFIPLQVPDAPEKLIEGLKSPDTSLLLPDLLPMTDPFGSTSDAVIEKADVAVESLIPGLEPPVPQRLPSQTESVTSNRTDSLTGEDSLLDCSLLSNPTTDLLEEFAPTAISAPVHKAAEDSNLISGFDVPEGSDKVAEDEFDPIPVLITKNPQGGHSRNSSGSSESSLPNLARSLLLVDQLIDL

[5] = Metabolic stability in human liver microsomes assessed as parent compound remaining at 0.5 uM incubated for 10 mins in presence of NADPH by LC-MS/MS analysis; assay type: ADME, Microsome; details: read-out: Stability
[6] = biological target: T1, AP2-associated protein kinase 1; assay: Inhibition of bacterially expressed GST-Xa-tagged human AAK1 using 5-FAM-labelled Aha-KEEQSQITSQVTGQIGWR-NH2 peptide as substrate incubated for 3 hrs in presence of ATP by electrophoretic analysis
[7] = biological target: Cytochrome P450 3A4 (Homo sapiens, UniProt P08684); assay: Inhibition of CYP3A4 (unknown origin) incubated for 10 mins in presence of NADPH by LC-MS/MS analysis; assay type: ADME
Cytochrome P450 3A4, sequence (P08684 whole entry): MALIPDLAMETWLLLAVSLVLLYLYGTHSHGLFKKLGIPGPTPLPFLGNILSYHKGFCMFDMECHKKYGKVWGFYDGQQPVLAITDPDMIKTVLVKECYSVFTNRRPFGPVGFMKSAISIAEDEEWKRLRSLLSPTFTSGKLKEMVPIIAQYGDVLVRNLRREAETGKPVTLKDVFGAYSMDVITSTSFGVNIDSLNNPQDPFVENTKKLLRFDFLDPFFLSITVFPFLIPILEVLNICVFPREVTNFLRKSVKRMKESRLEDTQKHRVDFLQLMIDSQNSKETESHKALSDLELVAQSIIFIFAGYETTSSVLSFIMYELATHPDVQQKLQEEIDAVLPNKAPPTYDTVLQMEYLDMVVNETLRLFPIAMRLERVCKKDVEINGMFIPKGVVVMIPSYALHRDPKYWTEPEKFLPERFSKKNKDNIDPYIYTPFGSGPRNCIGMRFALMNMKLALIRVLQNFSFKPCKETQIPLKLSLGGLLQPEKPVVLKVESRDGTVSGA

AP2-associated protein kinase 1 (Mus musculus, UniProt Q3UHJ0), sequence (Q3UHJ0 whole entry): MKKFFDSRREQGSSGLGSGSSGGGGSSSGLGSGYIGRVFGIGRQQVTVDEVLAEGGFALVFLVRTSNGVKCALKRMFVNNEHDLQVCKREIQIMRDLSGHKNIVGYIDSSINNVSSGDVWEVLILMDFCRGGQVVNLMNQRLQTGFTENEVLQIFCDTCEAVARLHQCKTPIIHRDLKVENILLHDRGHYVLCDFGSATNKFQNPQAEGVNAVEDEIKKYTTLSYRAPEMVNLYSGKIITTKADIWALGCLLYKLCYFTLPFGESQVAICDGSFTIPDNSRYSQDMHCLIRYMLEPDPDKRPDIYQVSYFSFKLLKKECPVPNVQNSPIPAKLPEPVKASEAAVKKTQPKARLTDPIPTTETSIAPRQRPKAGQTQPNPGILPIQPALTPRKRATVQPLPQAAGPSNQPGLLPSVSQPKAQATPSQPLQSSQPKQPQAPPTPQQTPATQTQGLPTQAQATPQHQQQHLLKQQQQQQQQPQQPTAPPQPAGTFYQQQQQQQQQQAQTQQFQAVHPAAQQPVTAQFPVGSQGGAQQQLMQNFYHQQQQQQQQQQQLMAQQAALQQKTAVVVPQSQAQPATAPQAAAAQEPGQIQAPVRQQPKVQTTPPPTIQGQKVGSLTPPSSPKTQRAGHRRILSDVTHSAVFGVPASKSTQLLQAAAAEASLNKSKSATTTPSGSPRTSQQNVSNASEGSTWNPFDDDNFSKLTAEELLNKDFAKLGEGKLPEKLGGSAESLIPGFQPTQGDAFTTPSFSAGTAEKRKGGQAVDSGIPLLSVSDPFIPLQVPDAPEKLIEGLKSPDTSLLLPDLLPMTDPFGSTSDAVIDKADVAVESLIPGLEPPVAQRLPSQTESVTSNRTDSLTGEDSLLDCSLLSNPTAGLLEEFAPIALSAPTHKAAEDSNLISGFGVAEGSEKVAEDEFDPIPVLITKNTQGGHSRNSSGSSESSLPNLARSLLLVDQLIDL

| Structure (SMILES) | Ki [1] [nM] | remaining at 10 min, 0.5 µM [2] [%] | remaining at 10 min, 0.5 µM [3] [%] | IC50 [4] [nM] | remaining at 10 min, 0.5 µM [5] [%] | IC50 [6] [nM] | IC50 [7] [nM] |
| --- | --- | --- | --- | --- | --- | --- | --- |
| CC(=O)Nc1cc(-c2ccc(OC[C@@H](N)CC(C)C)c(C)c2)ccn1 | 0.08 | 99 | 64 | 1.1 | 91 | 0.4 | 3900 |
| COC(=O)Nc1cc(-c2ccc(OC[C@@](C)(N)CC(C)C)c(C3CC3)c2)ccn1 | 0.05 | 80 | 33 | 1 | 100 | 0.4 | 16300 |
| CC(C)C[C@H](N)COc1ccc(-c2ccnc(NCc3ccccc3)c2)cc1 | – | – | – | – | – | 127 | – |
| CC(=O)Nc1cc(-c2cc(F)c(OC[C@@H](N)CC(C)C)c(C(F)(F)F)c2)ccn1 | 1.5 | 91 | 69 | 4.8 | 74 | 5 | 470 |
| COC(=O)Nc1cc(-c2ccc(OC[C@@](C)(N)CC(C)C)c(C#N)c2)ccn1 | 0.07 | 88 | 69 | 0.8 | 57 | 0.5 | 13000 |
| CC(C)C[C@](C)(N)COc1cnc(-c2ccnc(Cl)c2)cc1Cl | – | 98 | 92 | – | 86 | – | > 20000 |
| COC(=O)Nc1cc(-c2cc(OC)c(OC[C@@](C)(N)CC(C)C)cn2)ccn1 | – | 96 | 100 | – | 91 | 3.5 | > 20000 |
| COC(=O)Nc1cc(-c2cc(Cl)c(OC[C@@](C)(N)CC(C)C)cn2)ccn1 | 0.11 | 99 | 87 | – | 96 | 1.1 | > 20000 |
| COC(=O)Nc1cc(-c2ccc(OC[C@@](C)(N)CC(C)C)c(F)c2)ccn1 | 0.2 | 94 | 71 | – | 82 | 1.1 | > 20000 |
| Cc1cc(-c2cc(C(F)(F)F)c(OC[C@@](C)(N)CC(C)C)cn2)ccn1 | – | 75 | 65 | – | 90 | 1.2 | > 20000 |
| CC(=O)Nc1cc(-c2ccc(OC[C@@](C)(N)CC(C)C)c(OC(F)(F)F)c2)ccn1 | 0.07 | 87 | 27 | 1.6 | 54 | 0.8 | 9500 |
| COC(=O)Nc1cc(-c2cc(C(F)(F)F)c(OC[C@@](C)(N)CC(C)C)cn2)ccn1 | – | 79 | 78 | 0.4 | 80 | 0.4 | 5300 |
| COC(=O)Nc1cc(-c2ccc(OC[C@@](C)(N)CC(C)C)c(C(F)(F)F)c2)ccn1 | 0.05 | 74 | 68 | 1.5 | 80 | 0.3 | 6900 |
| CC(=O)Nc1cc(-c2ccc(OC[C@@H](N)CC(C)C)c(OC(F)(F)F)c2)ccn1 | 0.04 | 80 | 35 | 0.45 | 91 | 0.5 | 230 |
| COC(=O)Nc1cc(-c2ccc(OC[C@@H](N)CC(C)C)c(-c3ccno3)c2)ccn1 | 0.08 | 76 | 53 | 4.1 | 91 | 0.8 | 180 |
| Cc1cc(-c2cc(C)c(OC[C@@](C)(N)CC(C)C)cn2)ccn1 | 4.7 | 72 | 72 | – | 79 | 19 | – |
| COC(=O)Nc1cc(-c2cnc(OC[C@@](C)(N)CC(C)C)cc2C)ccn1 | 41 | 87 | 69 | – | 98 | 490 | > 20000 |
| CC(=O)Nc1cc(-c2ccc(OC[C@@](C)(N)CC(C)C)c(C(F)(F)F)c2)ccn1 | 0.04 | 90 | 54 | 0.4 | 66 | 0.4 | 14000 |
